# Data taken from PMC10850145, “Hormonal steroids induce multidrug resistance and stress response genes in Neisseria gonorrhoeae by binding to MtrR” (Nature Communications, 2024).
# Where “and” joins values, the source holds several entries; their conditions need not be identical. Identical values can stand only once. Like-named read-outs stand apart in the source and are kept apart here.
# Columns and labels:
# MtrR = biological target: T1, MtrR (Neisseria gonorrhoeae, UniProt P39897); experiment: Isothermal titration calorimetry, ligand binding to MtrR WT; conditions: ITC
# T1 construct: Hexa-histidine tag with TEV protease cleavage site (N, cleaved yes); made in house; host or cells: E. coli Rosetta Gami B(DE3) pLysS
# T1 sequence (P39897 whole entry): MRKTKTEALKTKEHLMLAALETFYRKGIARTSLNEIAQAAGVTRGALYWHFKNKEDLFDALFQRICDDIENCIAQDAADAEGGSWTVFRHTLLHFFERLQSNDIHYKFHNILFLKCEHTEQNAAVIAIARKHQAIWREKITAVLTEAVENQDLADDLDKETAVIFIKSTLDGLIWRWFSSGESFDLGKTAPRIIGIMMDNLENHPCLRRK
# MtrR R176E = biological target: T2, MtrR R176E (Neisseria gonorrhoeae, UniProt P39897, R176E); experiment: biochemical; type: binding
# T2 construct: Hexa-histidine tag with TEV protease cleavage site (N, cleaved yes); made in house; host or cells: E. coli Rosetta Gami B(DE3) pLysS
# T2 sequence (P39897 whole entry R176E): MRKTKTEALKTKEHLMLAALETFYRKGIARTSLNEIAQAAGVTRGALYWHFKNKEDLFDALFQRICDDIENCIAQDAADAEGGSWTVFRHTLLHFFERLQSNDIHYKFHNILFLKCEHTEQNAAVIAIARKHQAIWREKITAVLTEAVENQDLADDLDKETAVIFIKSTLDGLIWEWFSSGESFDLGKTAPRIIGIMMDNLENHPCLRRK
# MtrR D171A = biological target: T3, MtrR D171A (Neisseria gonorrhoeae, UniProt P39897, D171A); experiment: biochemical; type: binding
# T3 construct: Hexa-histidine tag with TEV protease cleavage site (N, cleaved yes); made in house; host or cells: E. coli Rosetta Gami B(DE3) pLysS
# T3 sequence (P39897 whole entry D171A): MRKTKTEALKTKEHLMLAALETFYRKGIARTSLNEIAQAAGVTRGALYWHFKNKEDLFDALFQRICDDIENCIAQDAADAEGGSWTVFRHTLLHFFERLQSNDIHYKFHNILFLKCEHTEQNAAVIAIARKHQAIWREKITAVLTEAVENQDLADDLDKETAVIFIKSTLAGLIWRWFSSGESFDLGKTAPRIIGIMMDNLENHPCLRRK
# [1] = biological target: T4, MtrR binding to mtrCDE operator (21mer) (Neisseria gonorrhoeae, UniProt P39897); experiment: Fluorescence polarization based DNA binding assay, mtrCDE operator; conditions: mtrCDE 21mer + 125 µM steroid
# T4 construct: Hexa-histidine tag with TEV protease cleavage site (N, cleaved yes); made in house; host or cells: E. coli Rosetta Gami B(DE3) pLysS
# T4 sequence (P39897 whole entry): as the sequence (P39897 whole entry) above
# Protocol: Fluorescence polarization based-DNA binding data were collected using a Panvera Beacon 2000 fluorescence polarization system (Invitrogen) and analyzed with Prism (Graphpad Software 9, 10). Purified MtrR was buffer exchanged into “DNA” binding buffer (150 mM NaCl, 20 mM Tris-HCl pH 7.5, 2.5% glycerol, 1 mM TCEP). […] The reported oligoduplexes containing the rpoH and mtrCDE binding site differ in lengths, 27mer and 21mer, respectively[17],[21]. […] BSA and dI-dC are included as carriers and to control for nonspecific DNA binding. Samples were excited at 490 nm and polarized emissions measured at 530 nm. Controls were run with no protein (DNA ± methanol, hormonal steroids) to ensure that millipolarization values were not affected by experimental conditions alone. The binding affinity of protein for DNA was determined using the following equation: P = Pf + (Pb – Pf) [M] / (Kd + [M]) where P is the measured polarization, Pf is the polarization of free DNA, Pb is the polarization of the completely bound DNA, Kd is the equilibrium dissociation constant, and M is the concentration of protein. Pb and Kd were determined by nonlinear least-squares analysis. At least three independent experimental measurements were averaged for each reported binding constant.
# gonococcal strain FA19 = experiment: MIC of steroidal hormones on GC agar, strain FA19; type: cell-based; conditions: Neisseria gonorrhoeae
# Protocol: (§1) To determine the minimal inhibitory concentrations (MICs) by the steroidal hormones and their effect on antimicrobial susceptibility, 5 x 10^5 CFU and 1:5 serial dilutions of gonococcal strains were spotted on GC agar plates containing different concentrations of antibiotics and/or hormones as indicated. Antimicrobial susceptibility was assessed after 24 h incubation.
# (§2) Table S1. Steroidal hormones are substrates of the MtrCDE efflux pump
# (§3) Progesterone Testosterone
# (§4) *Minimal inhibition concentration is defined by the lowest concentration at which visible growth is […]
# FA19 mtrD::kan (KH14) = experiment: MIC of steroidal hormones on GC agar, FA19 mtrD::kan (KH14); type: cell-based, Neisseria gonorrhoeae
# Protocol: as §1, §2, §3, §4
# rpoH-lacZ expression = type: cell-based, Neisseria gonorrhoeae; conditions: for Miller units, single well: individual replicate; for Miller units: plate rows 5-8 (rpoH), single well; for Plate-6 (Testosterone) Miller units, Mean / Plate-6 (Testosterone) Miller units: right (rpoH) half of sheet
# [2] = 6.25 µM hormone, plate columns 1-6 (WT)
# [3] = 12.5 µM hormone, plate columns 1-6 (WT)
# [4] = 25 µM hormone, plate columns 1-6 (WT)
structure (smiles),measurement,setting,value
"C[C@]12CC[C@H]3[C@@H](CCC4=CC(=O)CC[C@@]43C)[C@@H]1CC[C@@H]2O [Testosterone, testosterone]",binding stoichiometry N (ligand per MtrR),MtrR,~ 1
same,binding stoichiometry N (ligand per MtrR),MtrR; listed as TES,one molecule of steroid per MtrR monomer
same,Kd,"MtrR; equilibrium dissociation constant (Kd), MtrR WT, 25 °C, 1% MeOH",2260 nM and ~2260 nM
same,Kd,MtrR R176E,3730 ± 400 nM
same,Kd,MtrR D171A,30900 ± 24200 nM
same,"fluorescence polarization, MtrR titration",[1]; MtrR WT dimer 0.00 nM,0.00 mP
same,"fluorescence polarization, MtrR titration",[1]; MtrR WT dimer 6.35 nM,2.61 mP and 1.77 mP and 1.84 mP
same,"fluorescence polarization, MtrR titration",[1]; MtrR WT dimer 11.32 nM,5.67 mP and 3.54 mP and 4.04 mP
same,"fluorescence polarization, MtrR titration",[1]; MtrR WT dimer 16.21 nM,6.61 mP and 4.54 mP and 5.44 mP
same,"fluorescence polarization, MtrR titration",[1]; MtrR WT dimer 35.50 nM,8.17 mP and 7.34 mP and 6.54 mP
same,"fluorescence polarization, MtrR titration",[1]; MtrR WT dimer 73.35 nM,11.31 mP and 10.71 mP and 11.67 mP
same,"fluorescence polarization, MtrR titration",[1]; MtrR WT dimer 110.67 nM,14.21 mP and 12.44 mP and 14.87 mP
same,"fluorescence polarization, MtrR titration",[1]; MtrR WT dimer 147.65 nM,16.64 mP and 15.47 mP and 17.31 mP
same,"fluorescence polarization, MtrR titration",[1]; MtrR WT dimer 220.59 nM,21.64 mP and 18.07 mP and 21.37 mP
same,"fluorescence polarization, MtrR titration",[1]; MtrR WT dimer 292.55 nM,24.51 mP and 22.87 mP and 24.21 mP
same,"fluorescence polarization, MtrR titration",[1]; MtrR WT dimer 363.86 nM,27.31 mP and 26.01 mP and 26.94 mP
same,"fluorescence polarization, MtrR titration",[1]; MtrR WT dimer 434.54 nM,29.54 mP and 28.57 mP and 30.57 mP
same,"fluorescence polarization, MtrR titration",[1]; MtrR WT dimer 504.61 nM,32.14 mP and 30.37 mP and 33.41 mP
same,"fluorescence polarization, MtrR titration",[1]; MtrR WT dimer 574.07 nM,34.11 mP and 32.41 mP and 35.04 mP
same,"fluorescence polarization, MtrR titration",[1]; MtrR WT dimer 711.46 nM,38.41 mP and 36.24 mP and 38.57 mP
same,"fluorescence polarization, MtrR titration",[1]; MtrR WT dimer 848.00 nM,41.31 mP and 39.27 mP and 42.47 mP
same,MIC,gonococcal strain FA19; FA19,160 µg/mL
same,MIC,"gonococcal strain FA19; FA19, 24 h",555 µM
same,MIC,FA19 mtrD::kan (KH14); Neisseria gonorrhoeae,40 µg/mL and 139 µM
same,effect of mtrD deletion on MIC,FA19 mtrD::kan (KH14); vs FA19,lowered
same,"Miller units, single well",rpoH-lacZ expression; [2],114 Miller units and 127 Miller units and 153 Miller units
same,"Miller units, Mean","rpoH-lacZ expression; 6.25 µM hormone, plate columns 1-6 (WT), mean of 4 wells",125 Miller units
same,"Miller units, Mean","rpoH-lacZ expression; 6.25 µM hormone, plate columns 1-6 (WT), mean of plate rows 5-8 (rpoH)",125 Miller units
same,Miller units,rpoH-lacZ expression; [2],114 Miller units and 127 Miller units and 153 Miller units and 108 Miller units
same,Miller units,"rpoH-lacZ expression; 6.25 µM hormone, plate columns 7-12 (second strain not given)",161 Miller units and 167 Miller units and 191 Miller units and 162 Miller units
same,"Miller units, Mean","rpoH-lacZ expression; 6.25 µM hormone, plate columns 7-12 (second strain), mean of plate rows 5-8 (rpoH)",170 Miller units
same,"Miller units, single well","rpoH-lacZ expression; 6.25 µM hormone, plate columns 7-12 (second strain, not WT)",161 Miller units and 167 Miller units and 191 Miller units
same,"Miller units, Mean","rpoH-lacZ expression; 6.25 µM hormone, plate columns 7-12 (second strain, not WT), mean of 4 wells",170 Miller units
same,"Plate-6 (Testosterone) Miller units, Mean","rpoH-lacZ expression; 6.25 µM, plate column 3, mean of plate rows 5-8",43 Miller units
same,Plate-6 (Testosterone) Miller units,"rpoH-lacZ expression; 6.25 µM, plate column 3, plate rows 5-8, single wells",39 Miller units and 46 Miller units and 47 Miller units
same,"Plate-6 (Testosterone) Miller units, Mean","rpoH-lacZ expression; 6.25 µM, plate column 9, mean of plate rows 5-8",64 Miller units
same,Plate-6 (Testosterone) Miller units,"rpoH-lacZ expression; 6.25 µM, single wells",55 Miller units and 57 Miller units and 65 Miller units and 80 Miller units
same,"Miller units, single well",rpoH-lacZ expression; [3],120 Miller units and 124 Miller units and 149 Miller units
same,"Miller units, Mean","rpoH-lacZ expression; 12.5 µM hormone, plate columns 1-6 (WT), mean of 4 wells",130 Miller units
same,"Miller units, Mean","rpoH-lacZ expression; 12.5 µM hormone, plate columns 1-6 (WT), mean of plate rows 5-8 (rpoH)",130 Miller units
same,Miller units,rpoH-lacZ expression; [3],120 Miller units and 124 Miller units and 149 Miller units and 125 Miller units
same,Miller units,"rpoH-lacZ expression; 12.5 µM hormone, plate columns 7-12 (second strain not given)",161 Miller units and 177 Miller units and 186 Miller units and 176 Miller units
same,"Miller units, Mean","rpoH-lacZ expression; 12.5 µM hormone, plate columns 7-12 (second strain), mean of plate rows 5-8 (rpoH)",175 Miller units
same,"Miller units, single well","rpoH-lacZ expression; 12.5 µM hormone, plate columns 7-12 (second strain, not WT)",161 Miller units and 177 Miller units and 186 Miller units
same,"Miller units, Mean","rpoH-lacZ expression; 12.5 µM hormone, plate columns 7-12 (second strain, not WT), mean of 4 wells",175 Miller units
same,"Plate-6 (Testosterone) Miller units, Mean","rpoH-lacZ expression; 12.5 µM, plate column 4, mean of plate rows 5-8",52 Miller units
same,Plate-6 (Testosterone) Miller units,"rpoH-lacZ expression; 12.5 µM, plate column 4, plate rows 5-8, single wells",51 Miller units and 50 Miller units and 56 Miller units and 52 Miller units
same,"Plate-6 (Testosterone) Miller units, Mean","rpoH-lacZ expression; 12.5 µM, plate column 10, mean of plate rows 5-8",62 Miller units
same,Plate-6 (Testosterone) Miller units,"rpoH-lacZ expression; 12.5 µM, plate column 10, plate rows 5-8, single wells",58 Miller units and 54 Miller units and 63 Miller units and 74 Miller units
same,"Miller units, single well",rpoH-lacZ expression; [4],127 Miller units and 137 Miller units
same,"Miller units, Mean","rpoH-lacZ expression; 25 µM hormone, plate columns 1-6 (WT), mean of 4 wells",133 Miller units
same,"Miller units, Mean","rpoH-lacZ expression; 25 µM hormone, plate columns 1-6 (WT), mean of plate rows 5-8 (rpoH)",133 Miller units
same,Miller units,rpoH-lacZ expression; [4],127 Miller units and 137 Miller units and 133 Miller units
same,Miller units,"rpoH-lacZ expression; 25 µM hormone, plate columns 7-12 (second strain not given)",168 Miller units and 179 Miller units and 147 Miller units and 185 Miller units
same,"Miller units, Mean","rpoH-lacZ expression; 25 µM hormone, plate columns 7-12 (second strain), mean of plate rows 5-8 (rpoH)",170 Miller units
same,"Miller units, single well","rpoH-lacZ expression; 25 µM hormone, plate columns 7-12 (second strain, not WT)",168 Miller units and 179 Miller units and 147 Miller units
same,"Miller units, Mean","rpoH-lacZ expression; 25 µM hormone, plate columns 7-12 (second strain, not WT), mean of 4 wells",170 Miller units
same,"Plate-6 (Testosterone) Miller units, Mean","rpoH-lacZ expression; 25 µM, plate column 5, mean of plate rows 5-8",63 Miller units
same,Plate-6 (Testosterone) Miller units,"rpoH-lacZ expression; 25 µM, plate column 5, plate rows 5-8, single wells",68 Miller units and 55 Miller units and 57 Miller units and 70 Miller units
same,"Plate-6 (Testosterone) Miller units, Mean","rpoH-lacZ expression; 25 µM, plate column 11, mean of plate rows 5-8",65 Miller units
same,Plate-6 (Testosterone) Miller units,"rpoH-lacZ expression; 25 µM, plate column 11, plate rows 5-8, single wells",64 Miller units and 60 Miller units and 68 Miller units and 67 Miller units
